According to patent US10197552B2, “Monitoring cell-to-cell interactions” (Oakland University, priority 2015, dated 2019):

Key:
Assay type in all cases: cell-based, human
[1] = test system: E-selectin expression on HUVECs; assay: E-selectin expression on HUVECs in KG-1 co-cultures, flow cytometry (marker of EC activation); conditions: KG-1/HUVEC co-culture, 24 hours; KG-1 pre-treated 1 hour with 100 μM thalidomide or 1 μM lenalidomide (half of total dose), second half added to co-culture; vs untreated co-cultures; FIG. 14
Description: (§1) As illustrated throughout Example 1, acute myeloid leukemia (AML) cells mediate endothelial cell (EC) activation. In this Example, the effects of anti-inflammatories, namely thalidomide and lenalidomide, to prevent AML induced EC activation were tested. KG-1 cells were pre-treated with 100 μM thalidomide or 1 μM lenalidomide (half of total dose) for 1-hour. Co-cultures were then established by adding the pre-treated KG-1 cells (1×10^6 cells) to cultures containing HUVECs (˜80% confluence) with the addition of the second half of the total dose of the respective anti-inflammatories. After 24-hours, E-selectin expression on HUVECs was measured as a marker of EC activation using flow cytometry. Untreated (i.e., no anti-inflammatory added) co-cultures of KG-1 on HUVECs were used as controls. The results are shown in FIG. 14, where the + indicates whether the co-culture was the control, was treated with thalidomide, or was treated with lenalidomide.

[2] = test system: adhesion of AML cells (KG-1) to HUVECs; assay: Number of adherent AML cells on HUVECs in co-culture, flow cytometric analysis; conditions: treated KG-1/HUVEC co-cultures as, in comparison to untreated controls; FIG. 15
Description: as §1
It was determined whether thalidomide and lenalidomide were able to reduce EC activation mediated AML cell adhesion. Adherent cells were collected from treated (as described above) and control co-cultures, and the numbers of adherent AML cells in each population were enumerated based on flow cytometric analysis. […]

[3] = test system: adhesion of KG-1 cells to activated HUVECs; assay: QCM response to KG-1 cell binding on HUVECs activated with different TNF-α concentrations; conditions: 25×10^4 KG-1 cells on HUVECs activated by TNF-α at different concentrations; FIGS. 12C, 12D
Description: (§2) Next, the EGM-2 medium was replaced by a medium containing 10% FBS and TNF-α with a specified concentration (ranging from 0 ng/ml to […]), allowing the HUVECs to suffer growth and activation up to 20 hours. After the concentration of HL-60 and KG-1 cells reached 5×10^6 cells mL^−1, they were collected from the medium by centrifugation at 1500 g for 5 minutes to remove IMDM, and were re-suspended with EGM-2 medium supplemented with 10% FBS. This was performed to reduce variations of the viscosity of the medium for measurements. The density of these suspension cells was determined with a hemacytometer.
Finally, 100 μL of the cell-suspending solution was added into the measuring chamber. The Δf0 and ΔR1 responses were simultaneously monitored for 22 hours.
These examples confirmed that AML cells adhere to activated HUVECs based on binding with E-selectin. It is possible that the extent of activation of HUVECs, which is closely related to TNF-α concentration, should have an influence on the binding of AML cells. FIGS. 12A and 12B show the QCM responses induced by the addition of KG-1 cells with the same concentration (i.e., 25×10^4) on activated HUVECs after stimulation of TNF-α with different concentrations. […]

[4] = test system: HUVECs; assay: QCM monitoring of HUVEC activation by TNF-α, with microscope observation
Description: The gold QCM consists of a thin AT-cut quartz crystal wafer with a gold electrode on each side (9 MHz, non-polished with ˜1000 Å gold, geometric area is 0.28 cm^2, Beijing Chenjing Electronics Co., Ltd., China). The gold QCM was mounted between two biocompatible silicon O-rings to allow only one side of the gold electrode to be exposed to the liquid. The reaction chamber above the crystal was held with a 1 mL chlorinated polyethylene centrifugal tube. The device, being covered, was placed in a humidified CO2 incubator controlled at 5% CO2 and 37° C. to prevent evaporation from the culture holder.
An RQCM instrument (Maxtek Inc., USA) was used to simultaneously record resonant frequency (f0) and motional resistance (R1) of the QCM electrodes.
After being sterilized with 75% ethanol under UV light for 0.5 hours, the QCM culture-chamber was washed three times with PBS. Then, 500 μL of EGM-2 medium was added and the entire culture-chamber was put into the incubator. As soon as the QCM readout reached a stable baseline, 50 μL of EGM-2 medium containing freshly trypsinized 3×10^4 cells was added. All QCM measurements were performed in a static mode without stirring. The Δf0 and ΔR1 responses were simultaneously monitored in the process of cell attachment and growth in the next 24 hours.
as §2, with “hemacytometer. […]” for “hemacytometer.”

[5] = maximum reported concentration of TNF-α (range 0 to 400 ng ml^−1), 3×10^4 HUVECs on QCM gold electrode

Compound	E-selectin expression on HUVECs [1]	numbers of adherent AML cells [2]	QCM response shifts (|Δf0| and ΔR1 changes) on addition of KG-1 cells [3]	activation of HUVECs (shape-change, microscope images) ([4]; 40, 200 and 400 ng mL^−1 TNF-α, FIGS. 5B-5D)	frequency shifts in Stage IV as compared to those in Stage I [4, 5] [%]	resistance changes in Stage IV as compared to those in Stage I [4, 5] [%]
Nc1cccc2c1CN(C1CCC(=O)NC1=O)C2=O (centres unmarked) [lenalidomide]	significant reduction	significantly reduce				
TNF-α			increased with enhancement of TNF-α concentrations in the range of 2 ng mL^−1-200 ng mL^−1	effectively induce the activation of HUVECs in a dose dependent manner	15	7
O=C1CCC(N2C(=O)c3ccccc3C2=O)C(=O)N1 (centres unmarked) [thalidomide]	significant reduction	significantly reduce				
